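Growth conditions: 96-well plates. Treatment: test compound, 48 hours, 5 concentrations. Analysis: linear interpolation between bracketing concentrations; unreached endpoints set to highest concentration. TGI: total growth inhibition.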
Assays:
Assay in all cases: NCI tumour cell line growth inhibition, 48 h
786-0 renal = test system: 786-0 renal
A549 NSCLC = test system: A549 NSCLC
ACHN renal = test system: ACHN renal
BT-549 breast = test system: BT-549 breast
CAKI-1 renal = test system: CAKI-1 renal
CCRF-CEM leukemia = test system: CCRF-CEM leukemia
EKVX NSCLC = test system: EKVX NSCLC
HCC-2998 colon = test system: HCC-2998 colon
HCT-116 colon = test system: HCT-116 colon
HCT-15 colon = test system: HCT-15 colon
HOP-62 NSCLC = test system: HOP-62 NSCLC
HS 578T breast = test system: HS 578T breast
HT29 colon = test system: HT29 colon
IGROV1 ovarian = test system: IGROV1 ovarian
K-562 leukemia = test system: K-562 leukemia
KM12 colon = test system: KM12 colon
LOX IMVI melanoma = test system: LOX IMVI melanoma
M14 melanoma = test system: M14 melanoma
MALME-3M melanoma = test system: MALME-3M melanoma
MCF7 breast = test system: MCF7 breast
MDA-MB-231 breast = test system: MDA-MB-231 breast
MDA-MB-435 = test system: MDA-MB-435
MDA-N = test system: MDA-N
MOLT-4 leukemia = test system: MOLT-4 leukemia
NCI-H226 lung = test system: NCI-H226 lung
NCI-H23 lung = test system: NCI-H23 lung
NCI-H460 lung = test system: NCI-H460 lung
NCI-H522 lung = test system: NCI-H522 lung
NCI/ADR-RES ovarian = test system: NCI/ADR-RES ovarian
OVCAR-3 ovarian = test system: OVCAR-3 ovarian
OVCAR-4 ovarian = test system: OVCAR-4 ovarian
OVCAR-5 ovarian = test system: OVCAR-5 ovarian
OVCAR-8 ovarian = test system: OVCAR-8 ovarian
PC-3 prostate = test system: PC-3 prostate
RXF 393 renal = test system: RXF 393 renal
SF-268 CNS = test system: SF-268 CNS
SF-295 CNS = test system: SF-295 CNS
SF-539 CNS = test system: SF-539 CNS
SK-MEL-2 melanoma = test system: SK-MEL-2 melanoma
SK-MEL-28 melanoma = test system: SK-MEL-28 melanoma
SK-MEL-5 melanoma = test system: SK-MEL-5 melanoma
SK-OV-3 ovarian = test system: SK-OV-3 ovarian
SN12C renal = test system: SN12C renal
SNB-19 CNS = test system: SNB-19 CNS
SNB-75 CNS = test system: SNB-75 CNS
SR leukemia = test system: SR leukemia
SW-620 colon = test system: SW-620 colon
T-47D breast = test system: T-47D breast
TK-10 renal = test system: TK-10 renal
U251 CNS = test system: U251 CNS
UACC-257 melanoma = test system: UACC-257 melanoma
UACC-62 melanoma = test system: UACC-62 melanoma
UO-31 renal = test system: UO-31 renal
A498 renal = test system: A498 renal
COLO 205 colon = test system: COLO 205 colon
DU-145 prostate = test system: DU-145 prostate
HL-60(TB) leukemia = test system: HL-60(TB) leukemia
RPMI-8226 leukemia = test system: RPMI-8226 leukemia

Measured: TGI

CC1(N2CCOCC2)CC2C(=[N+]1[O-])CCC/C2=N/O (configuration not stated)
not listed: A498 renal | COLO 205 colon | DU-145 prostate | HL-60(TB) leukemia | RPMI-8226 leukemia
> 100 µM: all other assays above

CSC(=Nc1ccccc1)c1c(C)[nH]n(-c2ccccc2)c1=O
not listed: ACHN renal | HOP-62 NSCLC | IGROV1 ovarian | SF-295 CNS
> 100 µM: all other assays above
